One series in a line: Solubility in water. Format: physicochemical. The following applies: water at RT. The method, then: Water was progressively added at RT to APO HCl (I) until complete dissolution was reached. Subsequently, the same volume of water was added at RT to the other salts in order to compare their solubility. The mixtures were stirred for 10-15 minutes to allow equilibration. As the salts remained insoluble, the suspensions were diluted with twice the original volume and allowed to equilibrate for another 10-15 minutes at RT.

The nature of series [1]: In vivo comparative pharmacokinetic and tolerance study, subcutaneous administration. The following applies: rats. On the procedure:
Apomorphine Hydrochloride (Apo-HCl) was administered subcutaneously to Sprague Dawley rats three times a day for six days (total of eighteen 0.1-mL administrations). Both test items were compared for tolerance and systemic exposure: blood samples were collected from the lateral vein of the tail from all animals on treatment days 1 and 5 at all groups from main animals, samples were analyzed for apomorphine level determination.

Series [2] is classed as physicochemical. The following applies: 40±2° C./75±5% RH, 1 week.

The structures appear in SMILES notation. Where a name gives a salt, the structure may show the parent alone.

Turning to `CN1CCc2cccc3c2[C@H]1Cc1ccc(O)c(O)c1-3` [APO HCl (I), Apomorphine hydrochloride], in the series “Solubility in water”, the solubility in water result is “soluble in water”. The “volume of water for dissolution” value in “Solubility in water” (10-15 minutes equilibration) is on record as 54 V. Moreover, the “Apomorphine levels in blood (PK profile)” value in series [1] is listed as “rapid decrease of Apomorphine levels”.

In the case of `CCCCCCCCCCCCCCCC(=O)O.CCCCCCCCCCCCCCCC(=O)O.CN1CCc2cccc3c2[C@H]1Cc1ccc(O)c(O)c1-3` [Form O, Apo-Palmitic Acid (1:2)], the stability entry in series [2] was “remained stable”. Besides, the “Apomorphine levels in blood (PK profile)” value in series [1] was “Sustained Apomorphine levels”. Also, in series [1] (compared with Apo-HCl), the AUC entry is recorded as “higher than Apo-HCl” and the Cmax result is reported as “lower than Apo-HCl”.

Source of the values: patent US11382867B2, “Apomorphine-palmitic acid cocrystal solid particle crystalline form” (LEUKOS BIOTECH, S. L., priority 2018, dated 2022).
